# Changes are numbered by the printed parent chain. “And” between values parts separate entries of the source, which are not always exact repeats. Equal entries are not always repeated. “Also recorded” adds a separate entry of the source. Where two headings read alike, the source gives them in different places.
# Tests used:
# T2R38 AVI = target: T1, T2R38 AVI (Homo sapiens, UniProt P59533, A262V); experiment: Single cell calcium imaging, control: cells transfected with nonfunctional allele (AVI) of T2R38; format: cell-based; details: for response of T2R38 AVI transfected cells (S7_fig raw data): individual values of experiments 1-5
# T1 construct: leader: first 45 amino acids of rat somatostatin receptor subtype 3 (SSTR3) (N); expressed in transfected cells; host or cells: Peakrapid cells (HEK293 derivative, ATCC CRL-2828) stably expressing Galpha16gustducin44, co-transfected with human RTP4
# T1 sequence (P59533 1-333 A262V): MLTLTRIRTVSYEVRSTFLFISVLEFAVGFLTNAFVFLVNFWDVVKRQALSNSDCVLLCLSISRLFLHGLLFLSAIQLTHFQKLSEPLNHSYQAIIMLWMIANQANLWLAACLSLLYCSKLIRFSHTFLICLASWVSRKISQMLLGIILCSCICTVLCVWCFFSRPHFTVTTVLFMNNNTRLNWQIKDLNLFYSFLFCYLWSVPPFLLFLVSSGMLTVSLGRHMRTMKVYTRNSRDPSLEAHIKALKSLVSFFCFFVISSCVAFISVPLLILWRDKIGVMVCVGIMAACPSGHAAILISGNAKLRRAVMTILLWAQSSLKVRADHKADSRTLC
# Procedure: (§1) The coding sequences of either the functional (PAV, GenBank accession number AY258597.1) and non-functional (AVI, GenBank accession number AF494231.1) were amplified from human genomic DNA by polymerase chain reaction.
# (§2) The Peakrapid cell line expressing stably a chimeric Gα16gustducin44 G protein [21] was used. 40 000 cells were seeded in each well of a black/clear poly-D-lysine cellware pre-coated 96-well plate (Biocoat®, Becton-Dickinson, Erembodegem, Belgium) and transiently transfected with 50 ng of plasmid DNA containing the receptor sequence or not (empty vector) and with 50 ng of chaperone protein RTP4 per well. Forty hours after transfection, cells were incubated with the calcium-sensitive dye Fluo4 (Life Technologies, Oregon, USA) solubilized at 10 μg/ml in a buffer containing EMEM (150 mM NaCl, 5 mM KCl, 2 mM CaCl2, 1.2 mM MgCl2, 10 mM glucose), 10 mM HEPES, 0.01% (v/v) Pluronic F127, 0.1% (w/v) bovine serum albumin. After 1 h incubation at 37°C, cells were rinsed twice with the same buffer without Fluo4 and left in 50 μl buffer (prior ligand injection). Measurement were performed on a platform based on a motorized Axiobserver Z1 fluorescence microscope piloted by a Axiovision software (Zeiss, Jena, Germany) as described previously. For each selected well, images were taken 1 per second, during 30 seconds. 50 μl of the buffer containing the ligand twice concentrated was injected on the 2nd second of the time lapse record.
# (§3) After time lapse record, the number of responding cells in each injected well was determined using ImageJ 1.34 (Rasband, W.S., ImageJ, National Institutes of Health, Bethesda, Maryland, USA, http://rsb.info.nih.gov/ij/1997-2004), and expressed as the percentage of the surface of a microscope field covered by activated cells with respect to the total surface of the field covered by confluent cells. Automated determination of the surface occupied by responding cells is easier to perform than a cell counting. The resulting percentage of positive surface provided a convenient estimation of the percentage of responding cells, as observed by comparing the percentage of positive surface and percentage of responsive cells determined by direct counting, in the same experiment. In agreement with the literature, the percentage of responding cells was proportional to the agonist concentration. During experiment in each plate, at least 2 wells were tested with phenylthiocarbamide (PTC) at 0.1 mM, which is one of the best characterized agonist of T2R38 in the literature. The activation of T2R38 by PTC allows normalization of the result of other tested molecules. The results were thus expressed as the percentage of PTC activation. In scaling calcium imaging assays using this latter receptor, concentration-responses curves were performed and data were fitted to a four parameter logistic equation: y=min+ (max− min)/1+10 ^(logEC50−x)nH . Min and max are the minimum and the maximum values of the percentage of cell-activated surface respectively, y is the percentage of cell-activated surface at the x concentration and nH is the Hill coefficient.
# T2R38 = target: T2, T2R38 (Homo sapiens, UniProt P59533, A49P/I296V); experiment: Single cell calcium imaging, Peakrapid cells (Gα16gustducin44) transiently transfected with T2R38; format: cell-based; details: for response of T2R38 PAV transfected cells (S7_fig raw data): individual values of experiments 1-5; for Emax: read-out: Emax (% of positive control)
# T2 construct: leader: first 45 amino acids of rat somatostatin receptor subtype 3 (SSTR3) (N); expressed in transfected cells; host or cells: Peakrapid cells (HEK293 derivative, ATCC CRL-2828) stably expressing Galpha16gustducin44, co-transfected with human RTP4
# T2 sequence (P59533 1-333 A49P/I296V): T1 sequence (P59533 1-333 A262V) with A49P, V262A, I296V
# Description: as §1
# These coding sequences were cloned in a pEFIB backbone vector in translational fusion with the coding sequence of a leader sequence corresponding to the 45 first amino acids of the rat somatostatin receptor subtype 3 [20]. The constructs were verified by sequencing. The coding sequence of RTP4 (Genbank accession number AY562238.1) was amplified from human spleen cDNA and cloned a pCI backbone vector.
# The Gα16gustducin44 sequence was generated by swapping the last 132 nucleotides of the G α16 with the corresponding terminal sequence of the Gα-gustducin [21] and was cloned in a pIRES-Puro plasmid. This vector was transfected in the Peakrapid cell line (ATCC reference: CRL-2828™; purchased from LGC Standards SARL, Molsheim, FRANCE), HEK293 cell line derivative, cultured in EMEM culture medium (reference BE12-136F; Lonza, Vervier, BELGIUM) supplemented with 10% of foetal bovine serum (Sigma-Aldrich, Bornem, Belgium) and 1 μg/ml of Puromycin to allow the selection of recombinant cell populations. Cell clones expressing the Gα16gustducin44 were selected and the clone presenting the best functional response of T2R38 to phenylthicarbamide was used for the study (see below).
# as §2
# as §3, with “In scaling calcium imaging assays using this latter receptor, concentration-responses curves were performed and data were fitted to a four parameter logistic equation: y=min+ (max− min)/1+10 ^(logEC50−x)nH . Min and max are the minimum and the maximum values of the percentage of cell-activated surface respectively, y is the percentage of cell-activated surface at the x concentration and nH is the Hill coefficient.” left out
# [1] = tested on: mock transfected cells (empty vector); experiment: Single cell calcium imaging, control: mock transfected (empty vector) Peakrapid cells; format: cell-based, human
# Procedure: as §2, §3
# [2] = 2 butanone 0.0003, log10[ ] -3.52288
# [3] = 2 butanone 0.005, log10[ ] -2.30
# [4] = concentration-response curve, read-out: EC50
# [5] = percentage of the response elicited by 0.1 mM PTC
structure (smiles),measurement,setting,value
O=C1CCCO1 [γ-butyrolactone],response of T2R38 AVI transfected cells (S7_fig raw data),T2R38 AVI; listed as g-butyrolactone,0.0283% and 0.0479% and 0.129% and 0.148% and 0.16% and 0.208% and 0.188% and 0.394% and 0.0477% and 0.222%
same,agonist activity on T2R38 (in words),T2R38,able to specifically trigger this receptor
same,EC50,"T2R38; EC50, concentration-response curve",12 mM
same,response of T2R38 PAV transfected cells (S7_fig raw data),T2R38; listed as g-butyrolactone,18% and 20% and 13% and 12% (2×) and 14% and 11% (2×) and 9.52% and 15%
same,EC50,"T2R38; logEC50, printed in the picture of the concentration-response curve",12 mM
same,Emax,T2R38,33%
CCC(C)=O [2-butanone],percentage of surface covered by activated cells,[1]; [2],0.39% and 0.10% and 0.28% and 0.31% and 0.23% and 0.40%
same,percentage of surface covered by activated cells,"[1]; 2 butanone 0.001, log10[ ] -3",0.15% and 0.21% and 0.35% and 0.12% and 1.02% and 0.24%
same,percentage of surface covered by activated cells,[1]; [3],0.20% and 0.26% and 0.34% and 0.21% and 0.24% and 0.71%
same,percentage of surface covered by activated cells,"[1]; 2 butanone 0.015, log10[ ] -1.82",0.00% and 0.0352% and 0.31% and 0.18% and 0.33% and 0.26%
same,percentage of surface covered by activated cells,"[1]; 2 butanone 0.03, log10[ ] -1.52",0.0659% and 0.02% and 0.27% and 0.40% and 0.08% and 0.25%
same,percentage of surface covered by activated cells,"[1]; 2 butanone 0.08, log10[ ] -1.09691",0.25% and 0.75% and 3.48% and 1.23% and 0.22% and 1.04%
same,response of T2R38 AVI transfected cells (S7_fig raw data),T2R38 AVI,0.268% and 0.426% and 0.699% and 0.605% and 0.163% and 0.0184% and 0.394% and 1%
same,agonist activity on T2R38 (in words),T2R38,able to specifically trigger this receptor
same,percentage of surface covered by activated cells,T2R38; [2],0.29% and 0.34% and 0.44% and 0.21% and 0.00% and 0.15%
same,percentage of surface covered by activated cells,"T2R38; 2 butanone 0.001, log10[ ] -3",0.13% and 1.98% and 3.16% and 3.22% and 0.15% and 0.22%
same,percentage of surface covered by activated cells,T2R38; [3],0.54% and 0.83% and 7.88% and 6.11% and 2.08% and 3.12%
same,response of T2R38 PAV transfected cells (S7_fig raw data),T2R38,17% and 13% and 2.7% and 11% and 15% and 12% and 7% and 6%
same,EC50,T2R38; [4],11 mM
same,logEC50,T2R38; given in the concentration-response curve,-1.94
same,Emax (% of positive control),T2R38; [5],48 % of positive control
CCCC(C)=O [2-pentanone],percentage of surface covered by activated cells,"[1]; 2 pentanone 0.0001, log10[ ] -4",0.19% and 0.34% and 0.32% and 0.16% and 0.35% and 0.41%
same,percentage of surface covered by activated cells,"[1]; 2 pentanone 0.001, log10[ ] -3",0.04% and 1.06% and 0.17% and 0.14% and 0.64% and 0.06%
same,percentage of surface covered by activated cells,"[1]; 2 pentanone 0.003, log10[ ] -2.52288",0.03% and 0.41% and 0.31% and 0.06% and 0.22% and 0.074%
same,percentage of surface covered by activated cells,"[1]; 2 pentanone 0.006, log10[ ] -2.22185",0.27% and 1.25% and 0.19% and 0.29% and 0.62% and 0.33%
same,percentage of surface covered by activated cells,"[1]; 2 pentanone 0.02, log10[ ] -1.69897",0.18% and 0.24% and 0.54% and 1.13% and 0.15% and 0.52%
same,response of T2R38 AVI transfected cells (S7_fig raw data),T2R38 AVI,0.427% and 0.477% and 0.476% and 0.193% and 0.0823% and 0.141% and 0.285% and 0.393%
same,agonist activity on T2R38 (in words),T2R38,able to specifically trigger this receptor
same,response of T2R38 PAV transfected cells (S7_fig raw data),T2R38,9% and 12% and 15% and 13% (2×) and 7.41% and 5.71% and 14%
same,EC50,T2R38; [4],4 mM
same,EC50,"T2R38; given in the concentration-response curve, read-out: logEC50 (converted)",4.17 mM
same,Emax,T2R38; [5],45%
"C[S+](C)[O-] [DMSO, dimethylsulfoxide]",percentage of surface covered by activated cells,[1]; DMSO 0.0208957 M,0.0457% and 0.0545% and 0.10%
same,percentage of surface covered by activated cells,[1]; DMSO 0.0505834 M,0.62% and 0.46% and 0.98%
same,percentage of surface covered by activated cells,[1]; DMSO 0.0660305 M,1.05% and 0.28% and 0.79%
same,percentage of surface covered by activated cells,[1]; DMSO 0.113804 M,0.19% and 0.57% and 0.37%
same,percentage of surface covered by activated cells,[1]; DMSO 0.15%,0.20% and 0.05%
same,percentage of surface covered by activated cells,[1]; DMSO 0.161577 M,0.48% and 0.22% and 0.50%
same,percentage of surface covered by activated cells,[1]; DMSO 0.208656 M,1.44% and 1.21% and 1.20%
same,percentage of surface covered by activated cells,[1]; DMSO 0.283773 M,0.60% and 5.54% and 2.61%
same,percentage of surface covered by activated cells,[1]; DMSO 0.3%,0.01%
same,percentage of surface covered by activated cells,[1]; DMSO 0.388101 M,0.89% and 2.18% and 2.66%
same,percentage of surface covered by activated cells,[1]; DMSO 0.417313 M,2.52% and 1.37% and 1.55%
same,percentage of surface covered by activated cells,[1]; DMSO 1.5%,1.51% and 0.51% and 0.83% and 0.76% and 0.97% and 0.34%
same,effect on the non-functional haplotype of T2R38 (AVI),T2R38 AVI,absence of effect
same,agonist activity on T2R38 (in words),T2R38,activated T2R38
same,percentage of surface covered by activated cells,T2R38; DMSO 0.0208957 M,0.32% and 1.00% and 0.12% and 3.02% and 1.04% and 0.84%
same,percentage of surface covered by activated cells,T2R38; DMSO 0.0505834 M,0.62% and 1.17% and 1.07% and 2.06% and 2.44%
same,percentage of surface covered by activated cells,T2R38; DMSO 0.0660305 M,0.58% and 2.76% and 4.06% and 1.23% and 6.36% and 2.08%
same,percentage of surface covered by activated cells,T2R38; DMSO 0.15%,0.58% and 0.91% and 0.69% and 1.00%
same,percentage of surface covered by activated cells,T2R38; DMSO 0.3%,0.69% and 0.46%
same,percentage of surface covered by activated cells,T2R38; DMSO 1.5%,4.39% and 7.39% and 7.25% and 2.49% and 4.85% and 7.28%
same,T2R38-dependent calcium response,T2R38; DMSO 1.5% (209 mM) alone,induced a T2R38-dependent calcium response of the same intensity; also recorded: activates specifically T2R38
same,Emax (% of positive control),T2R38; [5],88 % of positive control
CSSC [diméthyldisulfide],response of T2R38 AVI transfected cells (S7_fig raw data),T2R38 AVI,0.145% and 0.026% and 1.18% and 0.463% and 1.36% and 1.27% and 1.33% and 1.1% and 0.0987% and 0.185%
same,response of T2R38 PAV transfected cells (S7_fig raw data),T2R38,18% and 12% (2×) and 2.83% and 2.52% and 3.72% and 7.4% and 9% and 2% and 0.585%

# From publication PMC5597121, “The human bitter taste receptor T2R38 is broadly tuned for bacterial compounds” (PLoS ONE, 2017)
